From PMC10861593, “Kisspeptin-10 binding to Gpr54 in osteoclasts prevents bone loss by activating Dusp18-mediated dephosphorylation of Src” (Nature Communications, 2024)

Tested on: Gpr54, Src and Dusp18 co-localization
Assay: IF staining / TIRF microscopy co-localization in pre-osteoclasts
Type: cell-based, mouse
Conditions: 10 nM Kp-10 20 min
Experimental: For endogenous IF staining, BMMs were seeded on confocal dishes and induced by 50 ng/ml RANKL and 10 ng/ml M-CSF for 2 days, and subsequently incubated with or without Kp-10 for 20 min. Cells were fixed in 10% TCA and incubated with anti-Gpr54 (Cell Signaling Technologies, 13776, 1:100), anti-Dusp18 (Santa Cruz., sc-376923, 1:100), or anti-Src (Cell Signaling Technologies, 2110, 1:400) or anti-Src (Cell Signaling Technologies, 2109, 1:400) overnight. IF staining of membrane colocation of Gpr54 with Src or Dusp18, and Src with Dusp18 were detected by Alexa Fluor™ 594 Tyramide SuperBoost™ Kit (Invitrogen, B40925) and Alexa Fluor™ 488 Tyramide SuperBoost™ Kit (Invitrogen, B40912) according to manufacturer’s instructions. The images were obtained by total internal reflection fluorescence (TIRF) microscopy (Ti2-E + H-TIRF, Nikon).

Kisspeptin-10 [Kp-10]
co-localization of Dusp18 with Gpr54 in the plasma membrane: colocalized with Gpr54 in the plasma membrane especially after treatment of Kp-10 | co-localization of Dusp18 with Src in the plasma membrane: colocalized with Src in the plasma membrane especially after treatment with Kp-10 | co-localization of Src with Gpr54 on the membrane: co-localized on the membrane with Gpr54 especially after Kp-10 stimulation
